Assay: molar heat capacity at constant pressure; mn = molality of the nth substance listed, in mol/kg
Details: 10000 kPa, Liquid, Large sample (1 g) DSC

[K+].[OH-] [potassium hydroxide] + O
molar heat capacity at constant pressure [J/K/mol]
Details | m1 = 0.201 | m1 = 0.5009 | m1 = 0.999 | m1 = 2.012 | m1 = 3 | m1 = 4.505 | m1 = 6.002
325 K | 74.45 | 73.81 | 72.8 | 71.28 | 70.15 | 69.18 | 68.41
337.4 K | 74.58 | 73.96 | 73.05 | 71.64 | 70.55 | 69.5 | 68.84
349.7 K | 74.72 | 74.09 | – | – | – | – | 69.19
349.8 K | – | – | 73.21 | 71.81 | 70.8 | 69.82 | –
362.1 K | 74.89 | 74.29 | 73.45 | 72.13 | 71.12 | 70.2 | 69.62
374.5 K | 75.11 | 74.49 | 73.67 | 72.43 | 71.42 | 70.5 | 69.98
386.8 K | 75.37 | 74.76 | 73.96 | 72.65 | 71.69 | 70.78 | 70.31
399.2 K | 75.69 | 75.06 | 74.27 | 72.97 | 72.03 | 71.12 | 70.62
411.5 K | – | – | – | – | – | – | 70.86
411.6 K | 76.08 | 75.46 | 74.6 | 73.21 | 72.28 | 71.37 | –
423.9 K | 76.54 | 75.88 | 74.91 | 73.59 | 72.62 | 71.69 | 71.13
436.3 K | 77.1 | 76.36 | 75.36 | 73.96 | 72.91 | 71.95 | 71.43
448.6 K | 77.74 | – | – | – | – | – | 71.78
448.7 K | – | 76.95 | 75.9 | 74.44 | 73.28 | 72.37 | –
461 K | 78.47 | 77.61 | 76.51 | 74.86 | 73.71 | 72.74 | 72.04
473.4 K | 79.36 | 78.39 | 77.23 | 75.47 | 74.29 | 73.14 | 72.44
485.7 K | 80.4 | 79.34 | – | – | 74.75 | 73.56 | 72.83
485.8 K | – | – | 78 | 76.01 | – | – | –
498.1 K | 81.6 | 80.4 | 78.94 | 76.7 | 75.36 | 74.05 | 73.27
510.5 K | 83.06 | 81.72 | 80 | 77.49 | 75.91 | 74.43 | 73.69
522.8 K | 84.83 | 83.26 | 81.23 | – | 76.7 | 74.99 | 74.16
522.9 K | – | – | – | 78.41 | – | – | –
535.2 K | 87.02 | 85.12 | 82.83 | 79.52 | 77.5 | 75.54 | 74.51
547.6 K | 89.76 | 87.48 | 84.7 | 80.95 | 78.49 | 76.26 | 75.11
555 K | 91.77 | 89.19 | 86.04 | 81.81 | 79.19 | 76.73 | 75.41
564.9 K | 95.05 | 91.89 | 88.12 | 83.07 | 80.09 | 77.46 | 75.77

— the NIST ThermoML archive (doi:10.1021/acs.jced.7b00192)
